Assay results reported in the supplement of paper PMC10307832.

Experiments:
Assay in all cases: relative viability (nuclei count vs DMSO), 5 days (fraction); higher = more cells survive
Bleomycin + Navitoclax = compound: CC1=C(N=C(N=C1N)[C@H](CC(=O)N)NC[C@@H](C(=O)N)N)C(=O)N[C@@H]([C@H](C2=CN=CN2)OC3C(C(C(C(O3)CO)O)O)OC4C(C(C(C(O4)CO)O)OC(=O)N)O)C(=O)N[C@H](C)[C@H]([C@H](C)C(=O)N[C@@H]([C@@H](C)O)C(=O)NCCC5=NC(=CS5)C6=NC(=CS6)C(=O)NCCC[S+](C)C)O [Bleomycin] + CC1(C)CCC(c2ccc(Cl)cc2)=C(CN2CCN(c3ccc(C(=O)NS(=O)(=O)c4ccc(N[C@H](CCN5CCOCC5)CSc5ccccc5)c(S(=O)(=O)C(F)(F)F)c4)cc3)CC2)C1 [Navitoclax] (partner 0.5 µM); settings: main component drawn
How it was run: (§1)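 Relative viability divides the nuclei count in treated wells by that in vehicle wells. Lung cancer cell lines were seeded in 1536-well plates, dosed by pin tool the next day, and fixed and stained after 5 days in one step with final 0.05% Triton X-100, 1% formaldehyde and 1 ug/ml Hoechst. Dosing was a single drug or a fixed anchor-drug dose plus five library-drug doses (not always all listed) in √10 steps, and values are medians of duplicate plates imaged at 4×.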

Etoposide + Crizotinib = compound: COc1cc([C@@H]2c3cc4c(cc3[C@@H](O[C@@H]3O[C@@H]5CO[C@@H](C)O[C@H]5[C@H](O)[C@H]3O)[C@H]3COC(=O)[C@H]23)OCO4)cc(OC)c1O [Etoposide] + C[C@@H](Oc1cc(-c2cnn(C3CCNCC3)c2)cnc1N)c1c(Cl)ccc(F)c1Cl [Crizotinib] (partner 1 µM)
How it was run: as §1

Bleomycin + Palbociclib = compound: CC1=C(N=C(N=C1N)[C@H](CC(=O)N)NC[C@@H](C(=O)N)N)C(=O)N[C@@H]([C@H](C2=CN=CN2)OC3C(C(C(C(O3)CO)O)O)OC4C(C(C(C(O4)CO)O)OC(=O)N)O)C(=O)N[C@H](C)[C@H]([C@H](C)C(=O)N[C@@H]([C@@H](C)O)C(=O)NCCC5=NC(=CS5)C6=NC(=CS6)C(=O)NCCC[S+](C)C)O [Bleomycin] + CC(=O)c1c(C)c2cnc(Nc3ccc(N4CCNCC4)cn3)nc2n(C2CCCC2)c1=O [Palbociclib] (partner 0.5 µM); settings: main component drawn
How it was run: as §1

Etoposide + Linsitinib = compound: COc1cc([C@@H]2c3cc4c(cc3[C@@H](O[C@@H]3O[C@@H]5CO[C@@H](C)O[C@H]5[C@H](O)[C@H]3O)[C@H]3COC(=O)[C@H]23)OCO4)cc(OC)c1O [Etoposide] + C[C@]1(O)C[C@@H](c2nc(-c3ccc4ccc(-c5ccccc5)nc4c3)c3c(N)nccn32)C1 [Linsitinib] (partner 1 µM)
How it was run: as §1

Cell Line	relative viability (Bleomycin + Navitoclax; first compound 0.01 µM)	relative viability (Bleomycin + Navitoclax; first compound 0.03162 µM)	relative viability (Bleomycin + Navitoclax; first compound 0.1 µM)	relative viability (Bleomycin + Navitoclax; first compound 0.3162 µM)	relative viability (Bleomycin + Navitoclax; first compound 1 µM)	relative viability (Etoposide + Crizotinib; first compound 0.01 µM)	relative viability (Etoposide + Crizotinib; first compound 0.03162 µM)	relative viability (Etoposide + Crizotinib; first compound 0.1 µM)	relative viability (Etoposide + Crizotinib; first compound 0.3162 µM)	relative viability (Etoposide + Crizotinib; first compound 1 µM)	relative viability (Bleomycin + Palbociclib; first compound 0.01 µM)	relative viability (Bleomycin + Palbociclib; first compound 0.03162 µM)	relative viability (Bleomycin + Palbociclib; first compound 0.1 µM)	relative viability (Bleomycin + Palbociclib; first compound 0.3162 µM)	relative viability (Bleomycin + Palbociclib; first compound 1 µM)	relative viability (Etoposide + Linsitinib; first compound 0.01 µM)	relative viability (Etoposide + Linsitinib; first compound 0.03162 µM)	relative viability (Etoposide + Linsitinib; first compound 0.1 µM)	relative viability (Etoposide + Linsitinib; first compound 0.3162 µM)	relative viability (Etoposide + Linsitinib; first compound 1 µM)
NCI-H23	0.47	0.284	0.276	0.155	0.181	0.365	0.471	0.402	0.297	0.169	0.311	0.251	0.25	0.15	0.152	0.504	0.645	0.364	0.409	0.191
NCI-H322M	1.13	1.36	1.36	1.28	0.597	0.775	0.889	0.905	0.871	0.533	0.472	0.562	0.484	0.428	0.491	0.902	0.993	0.727	0.845	0.565
NCI-H441		0.733	0.574	0.389	0.339	0.597	0.603	0.39	0.197	0.133	0.182	0.203	0.185	0.153	0.17	0.51	0.474	0.292	0.179	0.148
NCI-H460	0.343	0.465	0.0823	0.0158	0.0206	0.708	0.498	0.476	0.0396	0.0142	0.0989	0.126	0.0546	0.0357	0.0284	0.684	0.601	0.447	0.0349	0.0212
NCI-H520	0.858	0.957	1.1	0.927	0.656	0.759	0.729	0.944	0.725	0.629	0.215	0.218	0.215	0.203	0.206	0.927	1.04	1.1	0.895	0.9
NCI-H647	0.408	0.263	0.203	0.0968	0.0761	1.05	1.01	0.858	0.298	0.151	0.189	0.207	0.138	0.119	0.0651	1.14	1.15	1.13	0.416	0.164
NCI-H727	0.388	0.339	0.351	0.181	0.286	0.771	0.683	0.867	0.766	0.585	0.346	0.721	0.654	0.526	0.636	0.239	0.286	0.3	0.337	0.349
